Experimental data as given in patent US20090068243A1, “Novel formulations for delivery of antiviral peptide therapeutics” (priority 2007, published 2009).

How the values were obtained:
[1] = Intravenous pharmacokinetics in cynomolgus monkeys; assay type: in vivo, cynomolgus monkeys (Macaca fasicularis); settings: for clearance / half-life: cynomolgus monkey, plasma, iv, dosed intravenously; for half-life: read-out: Half-life (t ½; hr) (converted); for biological half-life relative to base sequence, in words: comment on Table 2
Protocol: For determining pharmacokinetic properties, an HIV fusion inhibitor peptide or a base sequence from which an HIV fusion inhibitor peptide is derived was dosed intravenously in cynomolgus monkeys (Macaca fasicularis) (other animal models may be used for determining pharmacokinetic properties, as known in the art). At various times post-dose, blood samples were drawn and plasma isolated by centrifugation. Plasma samples were stored frozen until analysis by LC-MS (liquid chromatography/mass spectrometry) in the electrospray, positive-ion mode. An HIV fusion inhibitor or base sequence was eluted from a C18 or C8 HPLC column with a gradient of acetonitrile in a buffer of 10 mM ammonium acetate, pH 6.8. At the time of analysis, plasma samples were deproteinated with either two or three volumes of acetonitrile containing 0.5% formic acid. Duplicate calibration standards in cynomolgus plasma samples were prepared at the same time as the samples and analyzed before and after the samples containing either HIV fusion inhibitor peptide or base sequence. Pharmacokinetic properties were calculated from the plasma concentration-time data using either mono-exponential or bi-exponential mathematical models. Models were derived by non-linear least squares optimization. A 1/C^2 weighting of concentrations was used. The following equations were used to calculate area-under the plasma concentration vs. time curve (AUC), total body clearance (Cl), and terminal elimination half-life (t ½).
Where A and B are intercepts and a and b are the rate constants of the exponential equations describing the distribution and elimination phases, respectively. When mono-exponential models were used, the “A” and “a” properties were eliminated.
Cl=Dose/AUC (expressed in L/K/hr)
t½=0.6903/b (expressed in hr)

[2] = Stability in aqueous solution (PBS), peptide remaining in solution by HPLC; assay type: physicochemical; settings: 10 mg/ml in PBS, about pH 7.3 to 7.5, 37° C.
[3] = system: HIV-IIIB; settings: 50% reduction in infectious virus titer
From the text: Assessment of biological properties included measurement of antiviral activity against HIV-1 strains. […] These assays score for reduction of infectious virus titer employing the indicator cell lines MAGI or the CCR5 expressing derivative cMAGI. Both cell lines exploit the ability of HIV-1 tat to transactivate the expression of a β-galactosidase reporter gene driven by the HIV-LTR. The β-gal reporter has been modified to localize in the nucleus and can be detected with the X-gal substrate as intense nuclear staining within a few days of infection. The number of stained nuclei can thus be interpreted as equal to the number of infectious virions in the challenge inoculum if there is only one round of infection prior to staining. […] In the MAGI and cMAGI assays, a 50% reduction in infectious titer (Vn/Vo=0.5) is significant, and provides the primary cutoff value for assessing antiviral activity (“IC50” is defined as the concentration of active ingredient resulting in a 50% reduction in infectious virus titer). […] The number of infected cells for each control and peptide dilution was determined with the CCD-imager, and then the IC50 was calculated (expressed in μg/ml).

[4] = system: HIV-Res; assay type: cell-based, HIV-1; settings: resistant viral isolate "Res"
From the text: Assessment of biological properties included measurement of antiviral activity against HIV-1 strains. In determining antiviral activity (e.g., one measure being the ability to inhibit transmission of HIV to a target cell) of the HIV fusion inhibitor peptides, an in vitro assay which has been shown, by data generated using peptides derived from the HR regions of HIV gp41, to be predictive of antiviral activity observed in vivo was used. […] These assays score for reduction of infectious virus titer employing the indicator cell lines MAGI or the CCR5 expressing derivative cMAGI. Both cell lines exploit the ability of HIV-1 tat to transactivate the expression of a β-galactosidase reporter gene driven by the HIV-LTR. The β-gal reporter has been modified to localize in the nucleus and can be detected with the X-gal substrate as intense nuclear staining within a few days of infection. […] The number of infected cells for each control and peptide dilution was determined with the CCD-imager, and then the IC50 was calculated (expressed in μg/ml).
Viruses resistant to the antiviral activity of a peptide consisting of a base sequence can be produced using standard laboratory methods. […] The cultures are maintained and monitored until syncytia are present. […] The second round of culture is maintained and monitored for presence of virus resistant to the antiviral activity of the peptide. […]

[5] = Helicity by circular dichroism (CD); assay type: physicochemical; settings: usually percent helicity at 10 μM, 25° C.
Protocol: (§1) Assessment of biophysical parameters included measurement of helicity and thermal stability. Helicity was assessed by circular dichroism (“CD”) as follows. Briefly, CD spectra were obtained using a spectrometer equipped with a thermoelectric temperature controller. The spectra was obtained at 25° C. with 0.5 nanometer (nm) steps from 200 to 260 nm, with a 1.5 nm bandwith, and a typical averaging time of 4 seconds/step. After the cell/buffer blank was subtracted, spectra were smoothed using a third-order least-squares polynomial fit with a conservative window size to give random residuals. Raw ellipticity values were converted to mean residue ellipticity using standard methods, and plotted was the wavelength (from 200 to 260 nm) versus [θ]×10−3 (degrees cm^2/dmol). Percent helicity values were then calculated using standard methods (usually expressed as percent helicity at 10 μM, 25° C.). Assessment of thermal stability was performed by monitoring the change in CD signal at 222 nm as temperature was raised in 2° C. steps, with 1 minute equilibration times. The stability for each sample (e.g., HIV fusion inhibitor peptide), as represented by the Tm value, is the temperature corresponding to the maximum value of the first derivative of the thermal transition.

[6] = Thermal stability (Tm) by CD signal at 222 nm; assay type: physicochemical; settings: CD at 222 nm, maximum of first derivative of thermal transition
Protocol: as §1

[7] = system: virus isolates (IIIB, 030, 060 and 098); settings: Geometric Mean of four isolates
From the text: (§2) Assessment of biological properties included measurement of antiviral activity against HIV-1 strains. […] These assays score for reduction of infectious virus titer employing the indicator cell lines MAGI or the CCR5 expressing derivative cMAGI. Both cell lines exploit the ability of HIV-1 tat to transactivate the expression of a β-galactosidase reporter gene driven by the HIV-LTR. The β-gal reporter has been modified to localize in the nucleus and can be detected with the X-gal substrate as intense nuclear staining within a few days of infection. The number of stained nuclei can thus be interpreted as equal to the number of infectious virions in the challenge inoculum if there is only one round of infection prior to staining. […] In the MAGI and cMAGI assays, a 50% reduction in infectious titer (Vn/Vo=0.5) is significant, and provides the primary cutoff value for assessing antiviral activity (“IC50” is defined as the concentration of active ingredient resulting in a 50% reduction in infectious virus titer). […] The peptide (in the respective dilution) was added to the cMAGI or MAGI cells, followed by the virus inocula; and 24 hours later, an inhibitor of infection and cell-cell fusion (e.g., SEQ ID NO:2 (enfuvirtide)) was added to prevent secondary rounds of HIV infection and cell-cell virus spread. The cells were cultured for 2 more days, and then fixed and stained with the X-gal substrate to detect HIV-infected cells. The number of infected cells for each control and peptide dilution was determined with the CCD-imager, and then the IC50 was calculated (expressed in μg/ml).
(§3) In particular, in vitro resistance comparison studies were performed between the novel SEQ ID NO:9 compound of interest and established antiviral agent SEQ ID NO:2, described in detail as follows: MT2 cells were infected with virus isolates (IIIB, 030, 060 and 098) and cultured in increasing concentrations of SEQ ID NO:2 (enfuvirtide) or SEQ ID NO:9 to select for resistance. The initial peptide concentration was approximately 2 times the IC50 of each peptide against the corresponding wild type isolate. Peptide concentrations were maintained by adding fresh peptide every 1-3 days. Cultures were monitored for cytopathic effect (CPE) using standard techniques and when maximal CPE was achieved, a small aliquot of virus was used for subsequent rounds of infection. Peptide concentrations were increased 2 to 4-fold depending on the length of time in culture when compared to the growth rate of wild type virus. During the course of selection, peptide-free virus stocks were also collected. Peptide-free virus stocks were characterized for gp41 genotypic changes by dideoxy sequencing chemistries and phenotypic susceptibility was determined using a cMAGI infectivity assay.

[8] = system: 584.000098
From the text: as §2, §3

[9] = system: IIIB; settings: starting virus isolate IIIB
From the text: as §2, §3

[10] = system: 584.000060
From the text: as §2, §3

[11] = system: 584.000030
From the text: as §2, §3

For `CC[C@H](C)[C@H](NC(=O)[C@H](C)NC(=O)[C@H](CCCNC(=N)N)NC(=O)[C@H](CC(=O)O)NC(=O)[C@H](Cc1c[nH]c2ccccc12)NC(=O)[C@H](C)NC(=O)[C@H](CCC(=O)O)NC(=O)[C@H](Cc1c[nH]c2ccccc12)NC(=O)[C@@H](NC(=O)[C@@H](NC(C)=O)[C@@H](C)O)[C@@H](C)O)C(=O)N[C@@H](C)C(=O)N[C@@H](CCC(=O)O)C(=O)N[C@@H](Cc1ccc(O)cc1)C(=O)N[C@@H](C)C(=O)N[C@@H](C)C(=O)N[C@@H](CCCNC(=N)N)C(=O)N[C@H](C(=O)N[C@@H](CCC(=O)O)C(=O)N[C@@H](C)C(=O)N[C@@H](CC(C)C)C(=O)N[C@H](C(=O)N[C@@H](CCCNC(=N)N)C(=O)N[C@@H](C)C(=O)N[C@@H](C)C(=O)N[C@@H](CCC(N)=O)C(=O)N[C@@H](CCC(=O)O)C(=O)N[C@@H](CCC(N)=O)C(=O)N[C@@H](CCC(N)=O)C(=O)N[C@@H](CCC(=O)O)C(=O)N[C@@H](CCCCN)C(=O)N[C@@H](CC(N)=O)C(=O)N[C@@H](CCC(=O)O)C(=O)N[C@@H](C)C(=O)N[C@@H](C)C(=O)N[C@@H](CC(C)C)C(=O)N[C@@H](CCCNC(=N)N)C(=O)N[C@@H](CCC(=O)O)C(=O)N[C@@H](CC(C)C)C(N)=O)[C@@H](C)CC)[C@@H](C)CC` [SEQ ID NO:5], the clearance [1] was over 0.667 mL/min/kg, the half-life [1] was 6 h and the “peptide remaining detectable in solution” value ([2]; time point of 1 week) was “less than 80%”.

With “Ac-TTWEAWDRAIAEYAARIEALIRAAQEQQEKLEAALREL-NH2 (N-terminus and C-terminus assumed) [SEQ ID NO:7]” the “biological half-life relative to base sequence, in words” value [1] was “increased biological half-life”, the clearance [1] was under 0.333 mL/min/kg and the half-life [1] was 17 h.

For “Ac-TTWEAWDRAIAEYAARIEALIRALQEQQEKNEAALREL-NH2 (N-terminus and C-terminus assumed) [SEQ ID NO:6]”, the “biological half-life relative to base sequence, in words” value [1] was “increased biological half-life”, the clearance [1] was under 0.333 mL/min/kg and the half-life [1] was 15 h.

With “Ac-TTWEAWDRAIAEYAARIEALLRAAQEQQEKLEAALREL-NH2 [SEQ ID NO:10, TTWEAWDRAIAEYAARIEALLRAAQEQQEKLEAALREL]” the “biological half-life relative to base sequence, in words” value [1] was “increased biological half-life”, the clearance [1] was under 0.333 mL/min/kg and the half-life [1] was 21 h. The “Antiviral Activity (μg/ml) HIV-IIIB IC50” value [3] was under 0.10 µg/mL, the “Antiviral Activity (μg/ml) HIV-Res IC50” value [4] was under 0.10 µg/mL and the “Helicity (%)” value [5] was 77%. The “Tm (° C.)” value [6] was 75 °C.

For “Ac-TTWEAWDRAIAEYAARIEALLRAAQEQQEKNEAALREL-NH2 (N-terminus and C-terminus assumed) [SEQ ID NO:8]”, the “biological half-life relative to base sequence, in words” value [1] was “does not exhibit the dramatic increase in half-life”, the clearance [1] was over 0.667 mL/min/kg and the half-life [1] was 7 h.

With enfuvirtide the “stability of solution, in words” value [2] was “becomes unstable after just several hours”, the “Fold Change in IC50” value [7] was 42 and the “Ending IC50” value ([7]; after selection) was 0.797 µg/mL. For the same compound, the “Starting IC50” value ([7]; before selection) was 0.019 µg/mL, the “Fold Change in IC50” value ([8]; starting virus isolate 584.000098) was 912 and the “Ending IC50” value ([8]; starting virus isolate 584.000098, after selection) was 45.575 µg/mL. The “Starting IC50” value ([8]; starting virus isolate 584.000098, before selection) was 0.05 µg/mL, the “Fold Change in IC50” value [9] was 27 and the “Ending IC50” value ([9]; after selection) was 0.163 µg/mL. For the same compound, the “Starting IC50” value ([9]; before selection) was 0.006 µg/mL, the “Fold Change in IC50” value ([10]; starting virus isolate 584.000060) was 7 and the “Ending IC50” value ([10]; starting virus isolate 584.000060, after selection) was 0.068 µg/mL. For the same compound, the “Starting IC50” value ([10]; starting virus isolate 584.000060, before selection) was 0.01 µg/mL, the “Fold Change in IC50” value ([11]; starting virus isolate 584.000030) was 19 and the “Ending IC50” value ([11]; starting virus isolate 584.000030, after selection) was 0.798 µg/mL. For the same compound, the “Starting IC50” value ([11]; starting virus isolate 584.000030, before selection) was 0.042 µg/mL.
